Data taken from publication PMC5124248, “Antitumor activity of TY-011 against gastric cancer by inhibiting Aurora A, Aurora B and VEGFR2 kinases” (Journal of Experimental & Clinical Cancer Research : CR, 2016).
Like-named read-outs stand apart in the source and are kept apart here.

Tests used:
[1] = tested on: p-Histone H3 (S10), substrate of Aurora B; test: Cellular Histone H3 phosphorylation (western blot, immunofluorescence) in MGC-803 cells; format: cell-based, human
Description: The proteins of whole cell lysates were prepared in RIPA buffer containing protease and phosphatase inhibitors (Thermo Fisher Scientific, Waltham, MA, USA), and quantified by the bicinchoninic acid (BCA) method. Immunoblotting analysis of proteins in cell lysates was performed as previously described. Primary antibodies used were as follows: anti-Aurora A (#12100), anti-p-Aurora A (Thr288) (#3079), anti-Histone H3 (#4499), and anti-p-Histone H3 (Ser10) (#9701), and anti-cleaved caspase 3 (#9661) were purchased from Cell Signaling Technology (Danvers, MA, USA); anti-PARP-1 (#sc-8007) and anti-GAPDH (#sc-25778) were purchased from Santa Cruz (CA, USA).
Cells were cultured on glass slides coated with 0.05 mg/ml PDL (Sigma-aldrich, St. Louis, MO, USA) in the presence of TY-011 (0.8 μM) or equivalent amount of DMSO for 24 h. The cells were fixed in 4% paraformaldehyde at room temperature, then permeabilized with 0.15% Triton-X100 and blocked in 3% BSA in PBS. The primary antibodies were incubated with slides at 1:100 dilution in PBS containing 3% BSA in a wet chamber at 4 °C overnight. […] The images were captured with FCFM (fluorescence confocal microscope) (Olympus FV1000 IX81, Tokyo, Japan) under appropriate excitation and emission filters or phase-contrast microscope (Olympus IX73, Tokyo, Japan). […]

MGC-803 cells = test: Annexin V/PI apoptosis analysis, MGC-803; format: cell-based, human; settings: 48 h (7.8% control)
Description: Apoptosis was detected by FITC Annexin V Apoptosis Detection Kit I according to the manufacturer’s instructions (Dojindo, Kumamoto, Japan) to determine the phosphatidyl serine exposure. Apoptotic cells were quantified by a flow cytometer (Guava EasyCyte 6HT-2 L, Merck Millipore, Billerica, MA, USA) using the InCyte software. At least 10 000 cells were analyzed for each data point.

Aurora A = molecular target: T1, Aurora A (Homo sapiens, UniProt O14965); test: HTRF KinEASE-STK kinase assay, Aurora A; format: biochemical
T1 construct: gift from Professor Jia Li, Shanghai Institute of Materia Medica/Chinese Academy of Sciences
T1 sequence (O14965 1-403): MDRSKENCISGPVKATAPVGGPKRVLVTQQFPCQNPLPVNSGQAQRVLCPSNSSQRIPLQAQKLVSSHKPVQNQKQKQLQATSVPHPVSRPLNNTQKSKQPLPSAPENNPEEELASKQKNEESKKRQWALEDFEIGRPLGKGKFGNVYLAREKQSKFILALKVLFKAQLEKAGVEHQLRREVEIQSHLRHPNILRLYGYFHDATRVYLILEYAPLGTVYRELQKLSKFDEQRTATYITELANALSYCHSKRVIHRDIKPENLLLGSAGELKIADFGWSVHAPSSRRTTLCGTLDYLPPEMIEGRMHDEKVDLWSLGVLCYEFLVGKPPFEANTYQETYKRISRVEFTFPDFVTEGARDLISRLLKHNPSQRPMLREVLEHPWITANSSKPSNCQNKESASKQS
Source text: The inhibition of TY-011 on activity of Aurora A, Aurora B and VEGFR2 was characterized by HTRF® KinEASE™-STK/TK kit according to the manufacturer’s instructions (Cisbio Assays, Codolet, France). Aurora A and Aurora B were gifts from Professor Jia Li, Shanghai Institute of Materia Medica/Chinese Academy of Sciences. VEGFR2 was purchased from Carna Biosciences (Kobe, Japan).

SMILES: CCc1cc2c(cn1)C(c1ccccc1Cl)=Nc1c(n[nH]c1C)N2 [TY-011, 9-(2-chloro-phenyl)-6-ephyl-1-methyl-2,4-dihydro-2,3,4,7,10-pentaaza-benzo[f]azulene]
- p-Histone H3 (S10), immunofluorescence ([1]; MGC-803, 0.8 μM, 24 h): decreased sharply
- phosphorylation of Histone H3 (S10), western blot ([1]; MGC-803 synchronized with nocodazole (100 nM) 16 h, then various concentrations for 24 h): strongly inhibited
- apoptosis (MGC-803 cells; MGC-803, 0.1 μM): 39.3%
- apoptosis (MGC-803 cells; MGC-803, 0.2 μM): 78.2%
- apoptosis (MGC-803 cells; MGC-803, 0.4 μM): 86.1%
- IC50 (Aurora A; Table S1, read-out: IC50 Aurora A): 100 nM
- IC50 (Aurora A; mean ± SD of three independent experiments, read-out: Aurora A IC50): 102 ± 10.1 nM
